Measurements: publication PMC10683025, “Discovery of a Hydroxylamine-Based Brain-Penetrant EGFR Inhibitor for Metastatic Non-Small-Cell Lung Cancer” (Journal of Medicinal Chemistry, 2023)
“Also recorded” adds a separate entry of the source. Like-named read-outs stand apart in the source and are kept apart here.

Tests used:
ACVRL1 = target: T1, ACVRL1 (Homo sapiens, UniProt P37023); assay: KINOMEScan; format: binding; conditions: ACVRL1, 1 µM; read-out: Percent Control
T1 construct: purchased Eurofins DiscoverX (KINOMEscan)
From the text: (§2) Percent control was mapped onto the kinome tree using TREEspot.

AURKA = target: T2, AURKA (Homo sapiens, UniProt O14965); assay: KINOMEScan; format: binding; conditions: read-out: Percent Control
T2 construct: purchased Eurofins DiscoverX (KINOMEscan)

[1] = target: T3, ABL1(T315I)-nonphosphorylated (Homo sapiens, UniProt P00519, T315I); assay: KINOMEScan; format: binding; conditions: read-out: Percent Control
T3 construct: purchased Eurofins DiscoverX
From the text: as §2

panel of 468 kinases = assay: KINOMEScan selectivity scores
From the text: as §2

WNK4 = target: T4, WNK4 (Homo sapiens, UniProt Q96J92); assay: KINOMEScan; format: binding; conditions: WNK4, 1 µM; read-out: Percent Control
T4 construct: purchased Eurofins DiscoverX (KINOMEScan service)
From the text: as §2

ABL1-nonphosphorylated = target: T5, ABL1-nonphosphorylated (Homo sapiens, UniProt P00519); assay: KINOMEScan; format: binding; conditions: read-out: Percent Control
T5 construct: purchased Eurofins DiscoverX
From the text: as §2

ZAK = target: T6, ZAK (Homo sapiens, UniProt Q9NYL2); assay: KINOMEScan; format: binding; conditions: read-out: Percent Control
T6 construct: purchased Eurofins DiscoverX (KINOMEScan service)

ALK(C1156Y) = target: T7, ALK(C1156Y) (Homo sapiens, UniProt Q9UM73, C1156Y); assay: KINOMEScan; format: binding; conditions: read-out: Percent Control
T7 construct: purchased Eurofins DiscoverX (KINOMEscan)
From the text: as §2

BIKE = target: T8, BIKE (Homo sapiens, UniProt Q9NSY1); assay: KINOMEScan; format: binding; conditions: read-out: Percent Control
T8 construct: purchased Eurofins DiscoverX (KINOMEscan)
From the text: as §2

BRAF = target: T9, BRAF (Homo sapiens, UniProt P15056); assay: KINOMEScan; format: binding; conditions: read-out: Percent Control
T9 construct: purchased Eurofins DiscoverX (KINOMEscan)
From the text: as §2

[2] = target: T10, ABL1(E255K)-phosphorylated (Homo sapiens, UniProt P00519, E255K); assay: KINOMEScan; format: binding; conditions: read-out: Percent Control
T10 construct: purchased Eurofins DiscoverX
From the text: as §2

[3] = In vitro metabolite identification; format: in vitro ADME; conditions: rat hepatocytes, 10 μM
ADCK3 = target: T11, ADCK3 (Homo sapiens, UniProt Q8NI60); assay: KINOMEScan; format: binding; conditions: ADCK3, 1 µM; read-out: Percent Control
T11 construct: purchased Eurofins DiscoverX (KINOMEscan)
From the text: as §2

[4] = Metabolic stability in hepatocytes; format: in vitro ADME, cynomolgus monkey; conditions: for Remaining Percentages: monkey hepatocytes
Procedure: Microsome stability was assessed in duplicate (n = 2) in the presence and absence of nicotinamide adenine dinucleotide phosphate (NADPH) with liver microsomes (0.5 mg/mL) from human (BD Gentest) and Sprague-Dawley rats (BD Gentest). Compounds were incubated in liver microsomes at 1 μM and samples (30 μL) were taken at 0.5, 15, 30, 45, and 60 min time points for analysis by LC-MS/MS. Hepatocyte stability was assessed in duplicate (n = 2) at a working cell density of 0.5 × 10^6 cells/mL with hepatocytes from human (BiolVT), Sprague-Dawley rat (BiolVT), cynomolgus monkey (RILD) or beagle dog (BiolVT). […] The in vitro half-life and intrinsic clearances were determined as previously described.[76]
In vitro half-life (in vitro t1/2) was determined from the slope value in [drawing 1] where k was determined by linear regression of the natural logarithm of the remaining percentage of the parent drug vs the incubation time curve.

[5] = target: T12, ABL1(Y253F)-phosphorylated (Homo sapiens, UniProt P00519, Y253F); assay: KINOMEScan; format: binding; conditions: read-out: Percent Control
T12 construct: purchased Eurofins DiscoverX
From the text: as §2

ERBB2 (HER2) = target: T13, ERBB2 (HER2) (Homo sapiens, UniProt P04626); assay: KINOMEScan; format: binding; conditions: read-out: Percent Control
T13 construct: purchased Eurofins DiscoverX (KINOMEScan service)
From the text: as §2

DRAK1 = target: T14, DRAK1 (Homo sapiens, UniProt Q9UEE5); assay: KinaseProfiler enzymatic radiometric assay; format: biochemical; conditions: read-out: Kinase IC50
T14 construct: purchased Eurofins DiscoverX (contract assay)
T14 sequence (Q9UEE5 1-414): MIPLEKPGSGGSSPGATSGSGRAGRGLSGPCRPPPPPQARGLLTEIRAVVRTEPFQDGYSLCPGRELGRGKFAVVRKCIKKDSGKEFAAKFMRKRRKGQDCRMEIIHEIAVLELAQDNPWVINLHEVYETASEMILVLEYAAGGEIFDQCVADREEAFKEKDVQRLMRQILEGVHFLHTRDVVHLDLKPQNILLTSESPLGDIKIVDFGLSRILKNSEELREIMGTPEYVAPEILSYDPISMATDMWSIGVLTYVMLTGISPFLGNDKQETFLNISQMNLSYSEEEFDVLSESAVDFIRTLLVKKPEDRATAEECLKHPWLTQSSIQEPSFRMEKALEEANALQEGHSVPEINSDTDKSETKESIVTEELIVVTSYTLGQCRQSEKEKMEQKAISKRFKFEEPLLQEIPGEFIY
Procedure: (§1) In vitro kinase activity (inhibitor binding constants (Kd) and biochemical inhibition (IC50’s)) were assessed by Eurofins DiscoverX (Kd determinations) and Eurofins Cerep (biochemical IC50 determinations).

LYN = target: T15, LYN (Homo sapiens, UniProt P07948); assay: KinaseProfiler enzymatic radiometric assay; format: biochemical; conditions: read-out: Kinase IC50
T15 construct: purchased Eurofins DiscoverX (contract assay)
Procedure: as §1

ERBB2 = target: T16, ERBB2 (Homo sapiens, UniProt P04626); assay: KinaseProfiler enzymatic radiometric assay; format: biochemical; conditions: read-out: Kinase IC50
T16 construct: purchased Eurofins DiscoverX (contract assay)
T16 sequence (P04626 23-1255): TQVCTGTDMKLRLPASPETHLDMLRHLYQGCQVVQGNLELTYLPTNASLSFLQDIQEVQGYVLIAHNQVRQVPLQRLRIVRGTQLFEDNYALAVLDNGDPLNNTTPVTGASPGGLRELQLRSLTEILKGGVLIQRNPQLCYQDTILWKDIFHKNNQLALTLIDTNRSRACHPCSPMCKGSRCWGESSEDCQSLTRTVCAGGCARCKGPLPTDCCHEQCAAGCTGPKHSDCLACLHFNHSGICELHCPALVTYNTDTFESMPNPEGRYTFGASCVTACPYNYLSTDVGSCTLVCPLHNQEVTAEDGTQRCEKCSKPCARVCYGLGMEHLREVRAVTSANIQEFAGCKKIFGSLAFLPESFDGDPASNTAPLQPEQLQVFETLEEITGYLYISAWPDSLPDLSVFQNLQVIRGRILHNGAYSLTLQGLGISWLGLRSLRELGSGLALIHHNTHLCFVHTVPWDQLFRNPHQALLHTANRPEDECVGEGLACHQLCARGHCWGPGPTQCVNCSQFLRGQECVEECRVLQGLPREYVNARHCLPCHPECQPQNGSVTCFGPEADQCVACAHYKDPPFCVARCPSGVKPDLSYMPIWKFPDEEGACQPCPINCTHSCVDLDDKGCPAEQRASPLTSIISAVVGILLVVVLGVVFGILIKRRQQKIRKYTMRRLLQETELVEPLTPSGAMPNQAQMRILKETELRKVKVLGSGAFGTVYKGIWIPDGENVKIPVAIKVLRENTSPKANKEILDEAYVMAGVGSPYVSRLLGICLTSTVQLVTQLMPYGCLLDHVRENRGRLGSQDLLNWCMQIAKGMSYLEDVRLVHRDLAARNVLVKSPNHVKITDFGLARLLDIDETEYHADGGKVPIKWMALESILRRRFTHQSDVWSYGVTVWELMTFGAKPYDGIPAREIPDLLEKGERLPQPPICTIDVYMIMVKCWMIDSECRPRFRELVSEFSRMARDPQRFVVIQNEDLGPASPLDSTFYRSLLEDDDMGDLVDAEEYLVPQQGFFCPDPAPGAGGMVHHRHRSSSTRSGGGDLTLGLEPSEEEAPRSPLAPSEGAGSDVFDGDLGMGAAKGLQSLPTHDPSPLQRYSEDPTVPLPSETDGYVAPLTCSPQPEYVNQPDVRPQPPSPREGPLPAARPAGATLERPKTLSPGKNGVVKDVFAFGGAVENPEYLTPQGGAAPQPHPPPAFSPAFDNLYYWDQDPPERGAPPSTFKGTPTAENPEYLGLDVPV
Procedure: as §1

ERBB4 = target: T17, ERBB4 (Homo sapiens, UniProt Q15303); assay: KinaseProfiler enzymatic radiometric assay; format: biochemical; conditions: read-out: Kinase IC50
T17 construct: purchased Eurofins Cerep (KinaseProfiler, contract assay)
T17 sequence (Q15303 26-1308): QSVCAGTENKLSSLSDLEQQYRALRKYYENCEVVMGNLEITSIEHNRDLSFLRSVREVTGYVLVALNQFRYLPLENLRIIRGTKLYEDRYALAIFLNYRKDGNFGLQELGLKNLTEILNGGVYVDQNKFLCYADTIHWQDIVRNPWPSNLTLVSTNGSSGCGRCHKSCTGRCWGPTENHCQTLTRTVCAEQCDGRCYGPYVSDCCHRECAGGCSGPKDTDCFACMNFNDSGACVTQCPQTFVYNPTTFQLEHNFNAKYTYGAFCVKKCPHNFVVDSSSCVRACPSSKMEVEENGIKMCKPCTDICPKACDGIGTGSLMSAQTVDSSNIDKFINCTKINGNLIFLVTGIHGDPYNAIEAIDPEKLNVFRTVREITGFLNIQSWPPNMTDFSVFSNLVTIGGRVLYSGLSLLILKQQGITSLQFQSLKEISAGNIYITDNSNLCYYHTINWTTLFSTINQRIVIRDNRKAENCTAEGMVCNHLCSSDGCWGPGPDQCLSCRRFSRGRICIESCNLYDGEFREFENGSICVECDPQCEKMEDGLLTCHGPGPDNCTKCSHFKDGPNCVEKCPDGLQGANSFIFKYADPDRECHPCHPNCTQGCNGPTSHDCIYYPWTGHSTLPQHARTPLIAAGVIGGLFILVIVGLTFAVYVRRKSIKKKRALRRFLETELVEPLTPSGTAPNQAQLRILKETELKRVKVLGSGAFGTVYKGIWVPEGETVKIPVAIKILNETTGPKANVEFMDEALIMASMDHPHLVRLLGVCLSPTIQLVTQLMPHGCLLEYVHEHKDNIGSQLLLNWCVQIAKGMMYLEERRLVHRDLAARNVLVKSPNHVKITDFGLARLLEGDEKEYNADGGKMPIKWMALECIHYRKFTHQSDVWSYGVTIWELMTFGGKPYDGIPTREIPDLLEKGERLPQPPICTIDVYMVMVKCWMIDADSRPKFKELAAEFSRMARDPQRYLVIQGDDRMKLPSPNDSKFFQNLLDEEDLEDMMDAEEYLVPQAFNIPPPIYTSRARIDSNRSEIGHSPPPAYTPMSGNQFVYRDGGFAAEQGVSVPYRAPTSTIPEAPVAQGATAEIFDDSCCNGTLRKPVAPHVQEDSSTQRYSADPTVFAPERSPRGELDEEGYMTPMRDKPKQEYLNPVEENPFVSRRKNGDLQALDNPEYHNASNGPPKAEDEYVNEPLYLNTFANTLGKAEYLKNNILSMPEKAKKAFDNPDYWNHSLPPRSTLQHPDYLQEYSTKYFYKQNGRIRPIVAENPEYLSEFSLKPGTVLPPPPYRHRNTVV
Procedure: as §1

BCR-ABLwt = BCR-ABLwt (Homo sapiens, UniProt P00519); assay: KinaseProfiler enzymatic radiometric assay; format: biochemical; conditions: read-out: Kinase IC50
Procedure: as §1

BRSK1 = target: T18, BRSK1 (Homo sapiens, UniProt Q8TDC3); assay: KINOMEScan; format: binding; conditions: BRSK1, 1 µM; read-out: Percent Control
T18 construct: purchased Eurofins DiscoverX (KINOMEscan)
From the text: as §2

WEE1 = target: T19, WEE1 (Homo sapiens, UniProt P30291); assay: KINOMEScan; format: binding; conditions: WEE1, 1 µM; read-out: Percent Control
T19 construct: purchased Eurofins DiscoverX
T19 sequence (P30291 whole entry): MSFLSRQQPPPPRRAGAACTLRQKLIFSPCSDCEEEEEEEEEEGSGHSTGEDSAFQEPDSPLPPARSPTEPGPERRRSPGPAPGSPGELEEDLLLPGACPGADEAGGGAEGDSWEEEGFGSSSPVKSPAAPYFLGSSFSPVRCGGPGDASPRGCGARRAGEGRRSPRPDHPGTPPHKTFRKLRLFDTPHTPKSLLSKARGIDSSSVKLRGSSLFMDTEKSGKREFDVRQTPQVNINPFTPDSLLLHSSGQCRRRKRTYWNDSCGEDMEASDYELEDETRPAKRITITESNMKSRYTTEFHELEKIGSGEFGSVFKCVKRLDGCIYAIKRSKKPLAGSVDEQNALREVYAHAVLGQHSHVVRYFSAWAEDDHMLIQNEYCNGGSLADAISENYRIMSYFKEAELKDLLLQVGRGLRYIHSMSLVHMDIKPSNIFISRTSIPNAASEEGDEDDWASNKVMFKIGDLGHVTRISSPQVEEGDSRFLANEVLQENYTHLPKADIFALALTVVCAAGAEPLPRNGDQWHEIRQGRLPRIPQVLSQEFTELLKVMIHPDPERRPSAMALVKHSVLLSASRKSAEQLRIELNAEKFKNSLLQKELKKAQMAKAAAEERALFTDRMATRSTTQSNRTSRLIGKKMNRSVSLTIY
From the text: as §2

AMPK-alpha1 = target: T20, AMPK-alpha1 (Homo sapiens, UniProt Q13131); assay: KINOMEScan; format: binding; conditions: AMPK-alpha1, 1 µM; read-out: Percent Control
T20 construct: purchased Eurofins DiscoverX (KINOMEscan)
From the text: as §2

CYP2D6 = CYP2D6 (Homo sapiens, UniProt P10635); assay: CYP2D6 time-dependent inhibition in human liver microsomes; conditions: for Inhibition percentage(%) at Top conc. / IC50: liver microsomes; for IC50: read-out: CYP2D6 IC50
Sequence of CYP2D6 (P10635 whole entry): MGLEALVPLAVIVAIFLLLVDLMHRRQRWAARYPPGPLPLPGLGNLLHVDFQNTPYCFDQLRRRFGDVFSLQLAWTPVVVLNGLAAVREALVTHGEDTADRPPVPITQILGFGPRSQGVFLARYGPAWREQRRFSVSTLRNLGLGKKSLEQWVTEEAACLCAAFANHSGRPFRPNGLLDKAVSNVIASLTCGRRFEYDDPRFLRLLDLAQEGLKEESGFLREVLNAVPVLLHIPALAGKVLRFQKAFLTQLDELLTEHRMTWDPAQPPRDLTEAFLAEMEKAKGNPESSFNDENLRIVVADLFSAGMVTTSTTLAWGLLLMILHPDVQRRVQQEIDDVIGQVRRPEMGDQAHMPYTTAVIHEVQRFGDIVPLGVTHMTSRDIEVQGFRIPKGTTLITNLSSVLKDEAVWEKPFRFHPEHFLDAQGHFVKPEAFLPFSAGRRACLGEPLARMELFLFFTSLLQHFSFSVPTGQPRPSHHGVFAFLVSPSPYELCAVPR

ACVR2B = target: T21, ACVR2B (Homo sapiens, UniProt Q13705); assay: KINOMEScan; format: binding; conditions: read-out: Percent Control
T21 construct: purchased Eurofins DiscoverX (KINOMEscan)
T21 sequence (Q13705 19-512): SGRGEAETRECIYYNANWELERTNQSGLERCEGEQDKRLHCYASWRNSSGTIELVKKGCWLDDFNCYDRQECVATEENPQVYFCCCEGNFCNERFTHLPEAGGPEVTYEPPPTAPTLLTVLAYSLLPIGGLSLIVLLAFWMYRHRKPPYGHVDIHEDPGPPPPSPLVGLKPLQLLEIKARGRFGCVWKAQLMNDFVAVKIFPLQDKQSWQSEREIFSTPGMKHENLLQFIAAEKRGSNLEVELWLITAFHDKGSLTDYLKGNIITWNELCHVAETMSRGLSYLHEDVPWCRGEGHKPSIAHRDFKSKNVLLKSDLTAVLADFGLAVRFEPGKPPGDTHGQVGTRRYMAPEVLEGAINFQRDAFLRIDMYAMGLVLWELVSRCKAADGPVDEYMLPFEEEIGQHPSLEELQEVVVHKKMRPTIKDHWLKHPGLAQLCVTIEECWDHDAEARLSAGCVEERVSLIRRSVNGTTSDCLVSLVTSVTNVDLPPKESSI
From the text: as §2

BMPR1B = target: T22, BMPR1B (Homo sapiens, UniProt O00238); assay: KINOMEScan; format: binding; conditions: read-out: Percent Control
T22 construct: purchased Eurofins DiscoverX (KINOMEscan)
From the text: as §2

YES = target: T23, YES (Homo sapiens, UniProt P07947); assay: KINOMEScan; format: binding; conditions: read-out: Percent Control
T23 construct: purchased Eurofins DiscoverX (KINOMEScan service)
T23 sequence (P07947 whole entry): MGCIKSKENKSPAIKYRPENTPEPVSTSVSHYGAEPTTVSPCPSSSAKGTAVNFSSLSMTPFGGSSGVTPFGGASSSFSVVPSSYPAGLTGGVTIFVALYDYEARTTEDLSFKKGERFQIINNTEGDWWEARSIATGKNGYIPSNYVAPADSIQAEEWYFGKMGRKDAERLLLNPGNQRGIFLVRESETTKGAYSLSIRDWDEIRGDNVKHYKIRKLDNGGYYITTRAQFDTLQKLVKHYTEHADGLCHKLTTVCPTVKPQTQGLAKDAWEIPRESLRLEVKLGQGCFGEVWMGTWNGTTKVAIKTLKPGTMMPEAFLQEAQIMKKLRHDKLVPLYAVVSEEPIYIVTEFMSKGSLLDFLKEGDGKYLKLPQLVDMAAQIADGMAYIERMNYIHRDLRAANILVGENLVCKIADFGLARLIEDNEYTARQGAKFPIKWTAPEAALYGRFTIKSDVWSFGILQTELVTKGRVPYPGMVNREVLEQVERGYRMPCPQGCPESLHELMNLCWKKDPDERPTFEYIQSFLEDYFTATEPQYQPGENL

COc1cc2ncnc(Nc3cccc(Cl)c3F)c2cc1OCCON1CCN(C)CC1 [Compound 9, N-(3-Chloro-2-fluorophenyl)-7-methoxy-6-(2-((4-methylpiperazin-1-yl)oxy)ethoxy)quinazolin-4-amine]
remaining binding at 1 µM (ACVRL1): 100% | remaining binding at 1 µM (AURKA): 75% | remaining binding at 1 µM [1]: 68% | Number of Hits S(1) (panel of 468 kinases; percent control < 1, of 403): 2 | Number of Hits S(10) (panel of 468 kinases; percent control < 10, of 403): 6 | Number of Hits S(35) (panel of 468 kinases; percent control < 35, of 403): 12 | remaining binding at 1 µM (WNK4): 95% | remaining binding at 1 µM (ABL1-nonphosphorylated): 8.9% | remaining binding at 1 µM (ZAK): 89% | remaining binding at 1 µM (ALK(C1156Y)): 100% | remaining binding at 1 µM (BIKE): 99% | remaining binding at 1 µM (BRAF): 89% | remaining binding at 1 µM [2]: 6.4% | share of parent/metabolite after incubation of 9 [3]: 1.11% | remaining binding at 1 µM (ADCK3): 90% | hepatocyte CLint at 2 h, 1 µM ([4]; cynomolgus monkey, hepatocytes): 29 µL/min/1e6 cells | Remaining Percentages ([4]; 15 min): 49.08% | Remaining Percentages ([4]; 30 min): 30.35% | Remaining Percentages ([4]; 60 min): 13.17% | Remaining Percentages ([4]; 90 min): 4.27% | Remaining Percentages ([4]; 120 min): BLOD | remaining binding at 1 µM [5]: 6.6% | remaining binding at 1 µM (ERBB2 (HER2)): 0.45% | IC50 (DRAK1): 1030 nM | IC50 (LYN): 58 nM | IC50 (ERBB2): 12 nM | IC50 (ERBB4): 330 nM | IC50 (BCR-ABLwt): 976 nM | remaining binding at 1 µM (BRSK1): 100% | remaining binding at 1 µM (WEE1): 100% | remaining binding at 1 µM (AMPK-alpha1): 100% | CYP 2D6 TDI (CYP2D6; IC50-shift, human liver microsomes and primary human hepatocytes): Negative; also recorded: not to be time-dependent | Inhibition percentage(%) at Top conc. (CYP2D6; 0 min): 78.15% | Inhibition percentage(%) at Top conc. (CYP2D6; 30 min with NADPH): 74.73% | Inhibition percentage(%) at Top conc. (CYP2D6; 30 min without NADPH): 78.78% | IC50 (CYP2D6; 30 min with NADPH): 1820 nM | IC50 (CYP2D6; 30 min without NADPH): 1160 nM | IC50 (CYP2D6; pre-incubation 0 min): 1050 nM | remaining binding at 1 µM (ACVR2B): 100% | remaining binding at 1 µM (BMPR1B): 79% | remaining binding at 1 µM (YES): 59%
